The values below come from patent US8937176B2, “Compounds” (Boehringer Ingelheim International GmbH, priority 2011, dated 2015).

The term EC50 denotes the concentration giving half of the maximal effect.

The experiment deals with T1, human recombinant mGluR5 (Homo sapiens, UniProt P41594).
T1 construct: expressed in transfected cells; host or cells: HEK 293 cell line
Put plainly: Positive modulation of mGluR5, calcium based FLIPR assay in HEK 293 cells. To be noted: EC50 of the modulation; HEK 293 cell line expressing human recombinant mGluR5; glutamate at approximately 5% basal stimulation; peak height of Ca release fluorescence signal. As for the experimental part: The positive modulation of mGluR5 is measured in a HEK 293 cell line expressing human recombinant mGluR5 and is detected with calcium based FLIPR assay. The cells are cultured with DMEM supplemented with 10% FCS, 2 μg/mL tetracycline, 100 μg/mL hygromycin and 500 μg/mL gneticin. The cell culture media is exchanged for tetracycline-free cell culture media 3-7 days before the assay. One day before the assay the cell culture medium is exchanged to DMEM without glutamine and phenol red and supplemented with 10% FCS, 100 μg/mL hygromycin and 500 μg/mL geneticin. On the assay day, the medium of the subconfluent cultures is removed and the cells are detached by addition of 2.5 ml EDTA(0.02%) per 175 cm2 culture flask for 1 minute. The cells are resuspend in Ringer solution (140 mM NaCl, 5 mM KCl, 2.5 mM CaCl2, 1.5 mM MgCl2, 5 mM Glucose, 10 mM Hepes; adjusted to pH 7.4 with NaOH), pooled and Ringer solution added to adjust the volume to 50 mL. The cell suspension is centrifuged for […] at 1500 U/min (425 g). The supernatant is removed and the cells washed a second time with 50 ml fresh Ringer solution and centrifuged again as before. The supernatant is again removed and the pellet resuspended in Ringer solution to 1,000,000 cells/ml (1×10^6 cells/mL). The cells are plated onto BD BioCoat Poly-D-Lysine 384 well plates (20.000 cells/well; 20 μl/well). The lid covered plates are then incubated until use at 37° C./10% CO2. For dye loading, 20 μl of Calcium-4 assay kit solution (prepared according to the manufacturer's description in Ringer solution) are added to the cells and the plates are incubated for 80 min 37° C. and then 10 min at room temperature.
Controls, Compound Dilution and Assay Execution:
Each assay plate contained wells with “high” and “low” controls:
Low controls 1% DMSO/ringer solution+basal glutamate activation (defined as 100% CTL).
High controls 10 μM CDPPB+basal glutamate activation (defined as 200% CTL).
Test compounds are dissolved and diluted in DMSO to 100-fold the desired concentrations. In a second step, the compounds are diluted in Ringer solution such that the compounds are 4-fold more concentrated than the desired final assay concentration. The final DMSO concentration was 1%.
20 μl of each compound solution are then transferred to the assay plate and the Ca2+ kinetic is measured to determine any intrinsic compound activity. After 5 min incubation in the FLIPR device, the second stimulation with 20 μl of glutamate in Ringer solution (glutamate concentration adjusted to approximately 5% basal stimulation of the maximal possible glutamate effect) is added and the kinetic Ca2+ response of the wells was measured for the modulation effect.
The peak height of the Ca release related fluorescence signal (9-66) is used for the EC50. The EC50 of the modulation is calculated over a nonlinear regression with GraphPad Prism (Table 1).

Each structure is given as a SMILES string.

T1 sequence (P41594 21-1212): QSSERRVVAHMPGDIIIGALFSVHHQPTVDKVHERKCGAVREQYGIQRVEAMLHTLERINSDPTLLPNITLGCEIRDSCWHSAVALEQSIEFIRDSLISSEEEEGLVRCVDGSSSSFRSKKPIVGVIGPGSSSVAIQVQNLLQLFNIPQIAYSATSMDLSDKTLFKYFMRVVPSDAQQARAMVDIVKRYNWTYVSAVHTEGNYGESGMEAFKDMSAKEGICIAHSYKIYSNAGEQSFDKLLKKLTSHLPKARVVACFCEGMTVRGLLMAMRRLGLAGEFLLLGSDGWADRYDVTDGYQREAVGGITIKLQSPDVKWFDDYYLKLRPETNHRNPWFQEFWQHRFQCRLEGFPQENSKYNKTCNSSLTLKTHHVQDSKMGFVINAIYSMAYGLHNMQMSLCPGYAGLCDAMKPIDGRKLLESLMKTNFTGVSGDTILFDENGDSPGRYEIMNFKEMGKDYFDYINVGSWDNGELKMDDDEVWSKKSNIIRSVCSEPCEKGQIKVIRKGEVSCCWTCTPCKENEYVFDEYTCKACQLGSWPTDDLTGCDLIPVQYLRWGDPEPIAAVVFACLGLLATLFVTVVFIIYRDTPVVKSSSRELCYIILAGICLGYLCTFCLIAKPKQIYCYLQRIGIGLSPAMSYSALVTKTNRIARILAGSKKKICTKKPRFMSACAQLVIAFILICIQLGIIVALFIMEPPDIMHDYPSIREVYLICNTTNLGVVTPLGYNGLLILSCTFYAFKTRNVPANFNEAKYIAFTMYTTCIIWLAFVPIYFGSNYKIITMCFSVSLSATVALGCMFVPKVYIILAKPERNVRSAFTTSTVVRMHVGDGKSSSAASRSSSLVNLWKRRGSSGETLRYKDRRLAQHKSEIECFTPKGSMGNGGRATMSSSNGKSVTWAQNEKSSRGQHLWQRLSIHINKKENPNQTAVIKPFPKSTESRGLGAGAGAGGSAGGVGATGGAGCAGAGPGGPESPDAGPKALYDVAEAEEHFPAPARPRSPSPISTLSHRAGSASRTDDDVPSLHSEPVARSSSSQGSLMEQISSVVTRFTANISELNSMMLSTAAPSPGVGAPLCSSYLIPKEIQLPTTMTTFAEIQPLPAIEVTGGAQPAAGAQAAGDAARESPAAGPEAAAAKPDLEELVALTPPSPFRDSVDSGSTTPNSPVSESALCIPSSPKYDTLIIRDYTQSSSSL

Consider `O=C(Cc1nc(-c2ccccc2)cn1-c1ccccc1)N1CCN(c2ncccn2)CC1` [Example 7.01.01., 2-(1,4-diphenyl-1H-imidazol-2-yl)-1-(4-pyrimidin-2-yl-piperazin-1-yl)-ethanone], for which the EC50 is 155 nM.

For the compound `O=C(Cc1nc(-c2ccc(F)cc2)cn1-c1ccc(F)cc1)N1CCN(c2ncccn2)CC1` [Example 7.01.02.], the EC50 was 43 nM.

On to `COc1ccc(-c2cn(-c3ccc(OC)cc3)c(CC(=O)N3CCN(c4ncccn4)CC3)n2)cc1` [Example 7.01.03.], for which the EC50 turned out to be 88 nM.

As for `Cc1ccc(-n2cc(-c3ccccc3)nc2CC(=O)N2CCN(c3ncccn3)CC2)cc1` [Example 7.01.04.], the EC50 worked out at 211 nM.

With `O=C(Cc1nc(-c2ccc(F)cc2)cn1-c1ccc(F)cc1)N1CCN(c2ccccn2)CC1` [Example 7.02.01., 2-(1,4-Bis-(4-fluoro-phenyl)-1H-imidazol-2-yl)-1-(4-pyridin-2-yl-piperazin-1-yl)-ethanonene], the EC50 was 54 nM.

With `COc1ccnc(N2CCN(C(=O)Cc3nc(-c4ccc(F)cc4)cn3-c3ccc(F)cc3)CC2)c1` [Example 7.03.01., 2-(1,4-Bis-(4-fluoro-phenyl)-1H-imidazol-2-yl)-1-(4-(4-methoxy-pyridin-2-yl)-piperazin-1-yl)-ethanone], the EC50 turned out to be 57 nM.

Regarding `O=C(Cc1nc(-c2ccc(F)cc2)cn1-c1ccc(F)cc1)N1CCN(c2cccnn2)CC1` [Example 7.03.02.], the EC50 was found to be 112 nM.

`O=C(Cc1nc(-c2ccc(F)cc2)cn1-c1ccc(F)cc1)N1CCN(c2ncncn2)CC1` [Example 7.04.01., 2-(1,4-Bis-(4-fluoro-phenyl)-1H-imidazol-2-yl)-1-(4-[1,3,5]triazin-2-yl-piperazin-1-yl)-ethanone]: the EC50 is 52 nM.

With `COc1cc(N2CCN(C(=O)Cc3nc(-c4ccc(F)cc4)cn3-c3ccc(F)cc3)CC2)ncn1` [Example 7.04.02.], the EC50 is 80 nM.

Turning to `Cc1ccc(-c2cn(-c3ccc(F)cc3)c(CC(=O)N3CCN(c4cccnn4)CC3)n2)cc1` [Example 7.04.03.], the EC50 was determined as 42 nM.

For the compound `Cc1ccc(-c2cn(-c3ccc(F)cc3)c(CC(=O)N3CCN(c4ncccn4)CC3)n2)cc1` [Example 7.04.04.], the EC50 turned out to be 18 nM.

In the case of `COc1ccnc(N2CCN(C(=O)Cc3nc(-c4ccc(C)cc4)cn3-c3ccc(F)cc3)CC2)c1` [Example 7.04.05.], the EC50 turned out to be 42 nM.

In the case of `Cc1ccc(-c2cn(-c3ccc(F)cc3)c(CC(=O)N3CCN(c4ccccn4)CC3)n2)cc1` [Example 7.04.06.], the EC50 came to 36 nM.

With `COc1cc(N2CCN(C(=O)Cc3nc(-c4ccc(C)cc4)cn3-c3ccc(F)cc3)CC2)ncn1` [Example 7.04.07.], the EC50 came to 114 nM.

`Cc1ccc(-c2cn(-c3ccc(F)cc3)c(CC(=O)N3CCN(c4ncncn4)CC3)n2)cc1` [Example 7.04.08.]: the EC50 is 41 nM.

Take `COc1cnc(N2CCN(C(=O)Cc3nc(-c4ccc(C)cc4)cn3-c3ccc(F)cc3)CC2)nc1` [Example 7.04.09.]: the EC50 came to 20 nM.

As for `COc1ccc(-c2cn(-c3ccc(F)cc3)c(CC(=O)N3CCN(c4ncccn4)CC3)n2)cc1` [Example 7.04.10.], the EC50 came out at 20 nM.

`COc1ccc(-c2cn(-c3ccc(F)cc3)c(CC(=O)N3CCN(c4cccnn4)CC3)n2)cc1` [Example 7.04.11.]: the EC50 amounted to 40 nM.

In the case of `COc1ccc(-c2cn(-c3ccc(F)cc3)c(CC(=O)N3CCN(c4cc(OC)ccn4)CC3)n2)cc1` [Example 7.04.12.], the EC50 turned out to be 40 nM.

For `COc1ccc(-c2cn(-c3ccc(F)cc3)c(CC(=O)N3CCN(c4ccccn4)CC3)n2)cc1` [Example 7.04.13.], the EC50 was 37 nM.

As to `COc1ccc(-c2cn(-c3ccc(F)cc3)c(CC(=O)N3CCN(c4cc(OC)ncn4)CC3)n2)cc1` [Example 7.04.14.], the EC50 came out at 33 nM.

For `COc1ccc(-c2cn(-c3ccc(F)cc3)c(CC(=O)N3CCN(c4ncncn4)CC3)n2)cc1` [Example 7.04.15.], the EC50 was found to be 91 nM.

`COc1ccc(-c2cn(-c3ccc(F)cc3)c(CC(=O)N3CCN(c4ncc(OC)cn4)CC3)n2)cc1` [Example 7.04.16.]: the EC50 was found to be 47 nM.

Regarding `Cc1cc(-c2cn(-c3ccc(F)cc3)c(CC(=O)N3CCN(c4ncccn4)CC3)n2)ccc1Cl` [Example 7.04.17.], the EC50 is 21 nM.

In the case of `Cc1cc(-c2cn(-c3ccc(F)cc3)c(CC(=O)N3CCN(c4ccccn4)CC3)n2)ccc1Cl` [Example 7.04.18.], the EC50 was 30 nM.

For the compound `Cc1cc(-c2cn(-c3ccc(F)cc3)c(CC(=O)N3CCN(c4cccnn4)CC3)n2)ccc1Cl` [Example 7.04.19.], the EC50 is 13 nM.

Consider `COc1ccnc(N2CCN(C(=O)Cc3nc(-c4ccc(Cl)c(C)c4)cn3-c3ccc(F)cc3)CC2)c1` [Example 7.04.20.], for which the EC50 was found to be 69 nM.

On to `COc1cc(N2CCN(C(=O)Cc3nc(-c4ccc(Cl)c(C)c4)cn3-c3ccc(F)cc3)CC2)ncn1` [Example 7.04.21.], for which the EC50 stood at 114 nM.

Take `Cc1cc(-c2cn(-c3ccc(F)cc3)c(CC(=O)N3CCN(c4ncncn4)CC3)n2)ccc1Cl` [Example 7.04.22.]: the EC50 was 35 nM.

On to `Cc1cc(-c2cn(-c3ccc(F)cc3)c(CC(=O)N3CCN(c4ccccn4)CC3)n2)ccc1F` [Example 7.04.23.], for which the EC50 stood at 42 nM.

For `Cc1cc(-c2cn(-c3ccc(F)cc3)c(CC(=O)N3CCN(c4cccnn4)CC3)n2)ccc1F` [Example 7.04.24.], the EC50 stood at 64 nM.

Take `Cc1cc(-c2cn(-c3ccc(F)cc3)c(CC(=O)N3CCN(c4ncccn4)CC3)n2)ccc1F` [Example 7.04.25.]: the concentration giving a half-maximal response (EC50) stood at 21 nM.

Turning to `COc1cc(N2CCN(C(=O)Cc3nc(-c4ccc(F)c(C)c4)cn3-c3ccc(F)cc3)CC2)ncn1` [Example 7.04.26.], the EC50 was 41 nM.

As for `COc1ccnc(N2CCN(C(=O)Cc3nc(-c4ccc(F)c(C)c4)cn3-c3ccc(F)cc3)CC2)c1` [Example 7.04.27.], the EC50 stood at 44 nM.

`Cc1cc(-c2cn(-c3ccc(F)cc3)c(CC(=O)N3CCN(c4ncncn4)CC3)n2)ccc1F` [Example 7.04.28.]: the EC50 turned out to be 24 nM.

As to `COc1ccc(-c2cn(-c3ccccc3)c(CC(=O)N3CCN(c4cc(OC)ncn4)CC3)n2)cc1` [Example 7.04.29.], the EC50 is 119 nM.

As for `COc1ccc(-c2cn(-c3ccccc3)c(CC(=O)N3CCN(c4ccccn4)CC3)n2)cc1` [Example 7.04.30.], the EC50 came to 190 nM.

With `COc1ccc(-c2cn(-c3ccccc3)c(CC(=O)N3CCN(c4cc(OC)ccn4)CC3)n2)cc1` [Example 7.04.31.], the EC50 was 146 nM.

As for `COc1ccc(-c2cn(-c3ccccc3)c(CC(=O)N3CCN(c4ncncn4)CC3)n2)cc1` [Example 7.04.32.], the EC50 came out at 281 nM.

As to `COc1ccc(-c2cn(-c3ccccc3)c(CC(=O)N3CCN(c4ncccn4)CC3)n2)cc1` [Example 7.04.33.], the concentration for a half-maximal effect (EC50) turned out to be 112 nM.

With `COc1ccc(-c2cn(-c3ccccc3)c(CC(=O)N3CCN(c4ncc(F)cn4)CC3)n2)cc1` [Example 7.04.34.], the EC50 amounted to 95 nM.

`COc1ccc(-c2cn(-c3ccccc3)c(CC(=O)N3CCN(c4ncc(OC)cn4)CC3)n2)cc1` [Example 7.04.35.]: the EC50 was 76 nM.

`COc1ccc(-c2cn(-c3ccc(F)cc3)c(CC(=O)N3CCN(c4ncc(F)cn4)CC3)n2)cc1` [Example 7.04.36.]: the EC50 came to 57 nM.

`COc1cccc(-c2cn(-c3ccc(F)cc3)c(CC(=O)N3CCN(c4ncccn4)CC3)n2)c1` [Example 7.04.37.]: the EC50 stood at 46 nM.

On to `COc1cccc(-c2cn(-c3ccc(F)cc3)c(CC(=O)N3CCN(c4cc(OC)ncn4)CC3)n2)c1` [Example 7.04.38.], for which the EC50 was determined as 108 nM.

Take `COc1cccc(-c2cn(-c3ccc(F)cc3)c(CC(=O)N3CCN(c4cc(OC)ccn4)CC3)n2)c1` [Example 7.04.39.]: the EC50 came out at 106 nM.

Turning to `COc1cccc(-c2cn(-c3ccc(F)cc3)c(CC(=O)N3CCN(c4ncncn4)CC3)n2)c1` [Example 7.04.40.], the EC50 is 143 nM.

Take `COc1cccc(-c2cn(-c3ccc(F)cc3)c(CC(=O)N3CCN(c4ccccn4)CC3)n2)c1` [Example 7.04.41.]: the EC50 worked out at 92 nM.
